Assay results: patent publication US20070259329A1, “Anergy-inducing cellular composition” (BioVerde. Inc., priority 2006, published 2007)
Marks after values point to notes of the source that are not given here.

Experiments:
CD3ε = molecular target: T1, CD3ε (Mus musculus, UniProt P22646); experiment: Lymphocyte marker analysis by flow cytometry, CD3ε epitope; assay type: cell-based, murine (C57BI/6 splenocytes); settings: for percent expression of cell surface molecule CD3ε: epitope-specific antibody, average of triplicate; for average percent suppression in epitope detection, CD3ε: relative to untreated control (0 ppm)
T1 construct: endogenous in cells; host or cells: murine splenocytes (C57Bl/6)
T1 sequence (P22646 22-189): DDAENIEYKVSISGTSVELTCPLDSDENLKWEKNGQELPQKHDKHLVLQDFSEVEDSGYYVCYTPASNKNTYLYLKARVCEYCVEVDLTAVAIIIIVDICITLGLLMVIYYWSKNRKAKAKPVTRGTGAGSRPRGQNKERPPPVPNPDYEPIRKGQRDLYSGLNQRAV
T1 sequence (P11942 23-182 partner): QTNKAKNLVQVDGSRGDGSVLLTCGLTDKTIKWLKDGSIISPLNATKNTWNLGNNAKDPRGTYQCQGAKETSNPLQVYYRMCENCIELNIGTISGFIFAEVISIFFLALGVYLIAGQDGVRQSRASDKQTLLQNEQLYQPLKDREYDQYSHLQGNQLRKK
T1 sequence (P04235 22-173 partner): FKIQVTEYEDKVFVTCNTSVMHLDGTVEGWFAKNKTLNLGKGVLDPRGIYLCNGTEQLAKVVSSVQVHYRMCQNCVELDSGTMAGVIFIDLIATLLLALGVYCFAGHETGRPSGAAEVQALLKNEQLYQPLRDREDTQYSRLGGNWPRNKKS
T1 sequence (P24161 22-164 partner): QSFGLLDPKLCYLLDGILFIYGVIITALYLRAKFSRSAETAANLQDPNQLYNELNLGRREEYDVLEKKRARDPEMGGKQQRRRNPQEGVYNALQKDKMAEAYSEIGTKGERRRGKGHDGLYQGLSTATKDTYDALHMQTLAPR
Experimental: (§1) To evaluate the action of EGCG in rendering cells to become anergy-inducing, murine splenocytes were used as a model system. Splenocytes were collected from BALB/c (H2 K^b) and C57BI/6 (H2 K^d) female mice of 8 to 13 weeks of age in HBSS (BioWhittaker) with 1% FCS. Cells were washed with HBSS (1% FCS) and treated with the media solution which contains RPMI 1640 (Sigma-Aldrich), 10 mM HEPES (Dojindo), and various concentrations of EGCG (98% purity, Roche) described in the examples.
(§2) Flow cytometric analyses of surface epitopes for the control and EGCG-treated splenocytes were performed using a series of fluorescence-labeled monoclonal anti-mouse CD and MHC and corresponding isotype control antibodies (eBioscience: CD2, CD36, CD4, CD11a, CD25, CD 28, CD 49d and CD80; Pharmingen: TCRαβ and MHC II). Murine splenocytes (C57BI/6) were treated with red blood cell lysis buffer (eBioscience) for 5 min prior to EGCG treatments. Immediately following EGCG-treatments, the splenocytes were washed with RPMI 1640 (10% FCS) and a staining buffer (eBioscience) at 4 degree C. Each splenocyte sample was reconstituted as a 50 μl aliquot in the same staining buffer and subject to antibody labeling. After washing twice the samples with the staining buffer, a minimum of 10,000 events per sample was collected on a Becton Dickinson FACScan flow cytometer.

CD11a = molecular target: T2, CD11a (Mus musculus, UniProt P24063); experiment: Lymphocyte marker analysis by flow cytometry, CD11a epitope; assay type: cell-based, murine (C57BI/6 splenocytes); settings: for percent expression of cell surface molecule CD11a: epitope-specific antibody, average of triplicate; for average percent suppression in epitope detection, CD11a: relative to untreated control (0 ppm)
T2 construct: endogenous in cells; host or cells: murine splenocytes (C57Bl/6)
T2 sequence (P24063 24-1162): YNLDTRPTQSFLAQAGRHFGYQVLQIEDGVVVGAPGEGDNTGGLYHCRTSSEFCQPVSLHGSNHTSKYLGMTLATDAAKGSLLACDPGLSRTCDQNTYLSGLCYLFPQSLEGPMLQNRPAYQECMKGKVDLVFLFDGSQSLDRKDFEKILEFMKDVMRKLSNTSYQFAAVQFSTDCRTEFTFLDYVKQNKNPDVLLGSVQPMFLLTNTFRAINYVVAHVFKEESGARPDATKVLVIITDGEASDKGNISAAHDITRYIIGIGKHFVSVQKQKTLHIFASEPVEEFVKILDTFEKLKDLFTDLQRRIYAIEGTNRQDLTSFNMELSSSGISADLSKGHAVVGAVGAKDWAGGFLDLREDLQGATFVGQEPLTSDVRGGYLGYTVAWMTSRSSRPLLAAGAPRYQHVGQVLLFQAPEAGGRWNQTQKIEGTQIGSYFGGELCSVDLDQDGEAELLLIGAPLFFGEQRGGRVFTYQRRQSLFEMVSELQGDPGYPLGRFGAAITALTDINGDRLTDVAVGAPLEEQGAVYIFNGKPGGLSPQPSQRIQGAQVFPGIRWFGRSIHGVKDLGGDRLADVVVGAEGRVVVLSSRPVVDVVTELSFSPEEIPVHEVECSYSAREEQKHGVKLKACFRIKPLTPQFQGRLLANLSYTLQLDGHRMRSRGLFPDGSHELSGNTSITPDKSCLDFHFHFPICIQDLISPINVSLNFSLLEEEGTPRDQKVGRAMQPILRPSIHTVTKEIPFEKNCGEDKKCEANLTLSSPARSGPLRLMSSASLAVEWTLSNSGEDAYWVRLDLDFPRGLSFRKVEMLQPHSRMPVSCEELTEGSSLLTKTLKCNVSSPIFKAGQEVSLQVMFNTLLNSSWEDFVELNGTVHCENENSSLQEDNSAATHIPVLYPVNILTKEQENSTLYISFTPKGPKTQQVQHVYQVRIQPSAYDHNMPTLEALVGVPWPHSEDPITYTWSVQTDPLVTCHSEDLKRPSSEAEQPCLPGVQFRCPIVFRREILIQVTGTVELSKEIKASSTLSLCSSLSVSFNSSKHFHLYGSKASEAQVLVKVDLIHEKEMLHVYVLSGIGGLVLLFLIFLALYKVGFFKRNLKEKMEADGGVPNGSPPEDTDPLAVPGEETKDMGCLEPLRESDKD
T2 sequence (P11835 24-771 partner): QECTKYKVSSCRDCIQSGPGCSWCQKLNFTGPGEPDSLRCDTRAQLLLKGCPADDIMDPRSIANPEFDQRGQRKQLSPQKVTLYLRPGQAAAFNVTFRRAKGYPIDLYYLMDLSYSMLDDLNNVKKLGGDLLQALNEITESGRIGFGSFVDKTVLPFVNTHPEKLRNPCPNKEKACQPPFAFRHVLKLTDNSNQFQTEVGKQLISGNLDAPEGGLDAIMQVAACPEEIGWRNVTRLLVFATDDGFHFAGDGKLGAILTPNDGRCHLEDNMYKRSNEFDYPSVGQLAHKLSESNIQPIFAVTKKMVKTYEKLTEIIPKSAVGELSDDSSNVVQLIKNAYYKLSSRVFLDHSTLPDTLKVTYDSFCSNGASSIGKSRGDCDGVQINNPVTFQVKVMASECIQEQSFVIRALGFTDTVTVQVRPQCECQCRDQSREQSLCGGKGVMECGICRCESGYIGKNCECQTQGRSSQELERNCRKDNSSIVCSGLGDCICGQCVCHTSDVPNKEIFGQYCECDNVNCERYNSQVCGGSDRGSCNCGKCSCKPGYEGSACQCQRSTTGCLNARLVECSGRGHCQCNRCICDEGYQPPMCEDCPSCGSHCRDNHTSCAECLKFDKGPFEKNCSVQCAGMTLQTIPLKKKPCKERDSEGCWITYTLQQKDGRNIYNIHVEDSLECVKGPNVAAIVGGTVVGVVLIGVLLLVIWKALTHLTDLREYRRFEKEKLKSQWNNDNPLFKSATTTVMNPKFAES
Experimental: as §1, §2

CD80 = molecular target: T3, CD80 (Mus musculus, UniProt Q00609); experiment: Lymphocyte marker analysis by flow cytometry, CD80 epitope; assay type: cell-based, murine (C57BI/6 splenocytes); settings: for percent expression of cell surface molecule CD80: epitope-specific antibody, average of triplicate; for average percent suppression in epitope detection, CD80: relative to untreated control (0 ppm)
T3 construct: endogenous in cells; host or cells: murine splenocytes (C57Bl/6)
T3 sequence (Q00609 38-306): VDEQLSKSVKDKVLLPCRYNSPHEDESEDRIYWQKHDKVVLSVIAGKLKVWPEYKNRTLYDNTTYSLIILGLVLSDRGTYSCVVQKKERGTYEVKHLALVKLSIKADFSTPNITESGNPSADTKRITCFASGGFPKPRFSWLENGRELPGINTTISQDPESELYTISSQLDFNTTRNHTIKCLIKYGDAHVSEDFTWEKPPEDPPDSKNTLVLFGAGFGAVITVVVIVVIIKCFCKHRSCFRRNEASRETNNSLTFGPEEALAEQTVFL
Experimental: as §1, §2

[1] = test system: Murine splenocytes (C57BI/6); experiment: Survival of murine splenocytes in the media solution containing EGCG (trypan-blue exclusion); assay type: cell-based; settings: media with 0, 200, 1000 ppm EGCG, FIGS. 1 and 2
Experimental: Murine splenocytes (C57BI/6) were suspended in the media solution containing 0, 200, and 1000 ppm EGCG with the cell concentration of 10^6/ml, and 5 ml of this cell suspension was placed in six-well incubation plates and incubated at 4 or 37 degree C. for either 1 hr or 24 hours. Surviving cells were counted by trypan-blue exclusion method and direct observation under a high magnification (800×) by a compound light microscope (Nikon Eclipse TE300). […] (FIGS. 1 and 2). Presented data are the average of three replicates for each treatment.

[2] = test system: BALB/c (stimulator cells) and C57BI/6 (responder cells) splenocytes; experiment: Two-way mixed lymphocyte reaction (MLR); assay type: cell-based, murine; settings: stimulator or responder cells treated with EGCG, 72 hours culture, FIG. 4
Source text: In a two-way MLR (FIG. 4), both stimulator and responder populations were left capable of proliferating. […] (penicillin 100 U/ml and streptomycin 100 ppm, BioWhittaker) to a final concentration of 5.0×10^6 cells/ml. […] Cell proliferation was estimated by counting with trypan-blue exclusion a small sample of the cells from each MLR well.

IL-2 production = experiment: Cytokine ELISA of one-way MLR supernatants, IL-2; assay type: cell-based, murine; settings: versus untreated, FIG. 7
Experimental: (§3) In a one-way MLR (FIG. 3), a stimulator splenocyte population (BALB/c) was treated with 30 ppm mitomycin C (MP Biomedicals) in RPMI 1640 (10% FCS) at 37 degree C. for 30 min. to arrest its proliferation before EGCG treatments. The splenocytes were then resuspended with the media solution (RPMI 1640 and 10 mM HEPES) containing 0, 100, and 200 ppm EGCG and incubated at 4-8 degree C. for 1 hour and twice washed with RPMI 1640 (10% FCS) before used for MLR experiments. In a two-way MLR (FIG. 4), both stimulator and responder populations were left capable of proliferating. Each cell population was resuspended in RPMI 1640 (10% FCS) and antibiotics: (penicillin 100 U/ml and streptomycin 100 ppm, BioWhittaker) to a final concentration of 5.0×10^6 cells/ml. The stimulator and responder cells were mixed with a 1:1 ratio (120 μl each) and incubated in triplicate in 96-well plates for 72 hours at […] and 5% CO2. Cell proliferation was estimated by counting with trypan-blue exclusion a small sample of the cells from each MLR well.
(§4) Supernatants from the one-way MLR wells (Example II) were assayed for IL-2 and INF-γ production using cytokine quantification ELISA (e-Bioscience).

INF-γ production = experiment: Cytokine ELISA of one-way MLR supernatants, INF-γ; assay type: cell-based, murine; settings: versus untreated, FIG. 8
Experimental: as §3, §4

[3] = test system: C57BI/6 splenocytes co-cultured with EGCG-treated BALB/c splenocytes; experiment: Occurrence of anergy: secondary stimulation of one-way MLR cultures; assay type: cell-based, murine; settings: additional 48 hours, FIG. 9
Experimental: as §3

pancreatic β-cell = settings: Han (2003); cited from earlier work

dose dependence of reduction in epitope detection, CD3ε (CD3ε; 100 vs 200 ppm): dose-dependent reduction
percent expression of cell surface molecule CD3ε (CD3ε; EGCg 100 ppm): 20.2%
average percent suppression in epitope detection, CD3ε (CD3ε; EGCg 100 ppm): (37.5)* percent
percent expression of cell surface molecule CD3ε (CD3ε; EGCg 200 ppm): 5.6%
average percent suppression in epitope detection, CD3ε (CD3ε; EGCg 200 ppm): (82.7)** percent
blocking of CD3ε by EGCG (CD3ε; summary of TABLE 1): strongly blocked
percent expression of cell surface molecule CD11a (CD11a; EGCg 100 ppm): 90.1%
average percent suppression in epitope detection, CD11a (CD11a; EGCg 100 ppm): (4.1)** percent
percent expression of cell surface molecule CD11a (CD11a; EGCg 200 ppm): 90.0%
average percent suppression in epitope detection, CD11a (CD11a; EGCg 200 ppm): (4.3)** percent
percent expression of cell surface molecule CD80 (CD80; EGCg 100 ppm): 3.1%
average percent suppression in epitope detection, CD80 (CD80; EGCg 100 ppm): (85.4)** percent
percent expression of cell surface molecule CD80 (CD80; EGCg 200 ppm): 9.7%
average percent suppression in epitope detection, CD80 (CD80; EGCg 200 ppm): (16.4)** percent
Substance: (−)-epigallocatechin-3-o-gallate [EGCG]
% survival at 4 degree C. versus 37 degree C. [1]: greater % survival
survival of the splenocytes ([1]; incubated for 24 hours): significantly low
proliferation of splenocytes [2]: significantly decreased
production of IL-2 (IL-2 production): significantly decreased down to near or below the background levels
production of INF-γ (INF-γ production): significantly decreased down to near or below the background levels
T-cell proliferation after secondary stimulation ([3]; both treatments (fresh stimulator cells, exogenous IL-2 1.7 IU/ml) added at 48 hours): subtle but significant suppression
T-cell proliferation after secondary stimulation ([3]; cell-stimulated cultures: fresh BALB/c stimulator cells added at 48 hours): suppressed the proliferation down to the level of unstimulated blank
cytokine-induced pancreatic β-cell damage (pancreatic β-cell): suppression
